*1 amine or outer side, *2 acyl side, *3 side chain or, on linkers, in order; H or OH if unused. Where a SMILES comes first, the peptide text is derived from it. The star is where a group is joined. γGlu = O=C(O)[CH](CCC(=O)[*:2])N[*:1]; NHOH = ON*

Here are results for three compounds from BindingDB's records for doi:10.1016/s0960-894x(98)00116-4 (University of Waterloo, 1999).

Assay [1] addresses Lactoylglutathione lyase (Saccharomyces cerevisiae). The assay can be described thus: Compound was evaluated for inhibition of Saccharomyces cerevisiae glyoxalase-I by using enzymatic assay at each of 6 substrate concentrations between 0.1 mM and 2.0 mM.
Assay [2] has the same target. The assay can be described thus: Compound was evaluated for inhibition of Saccharomyces cerevisiae glyoxalase-I, activity is determined with 0.5 mM substrate.

As for `CN(O)C(=O)CCC(NC(=O)CCC(N)C(=O)O)C(=O)NCC(=O)O` (stereo not drawn) [2-Amino-4-[1-(carboxymethyl-carbamoyl)-3-(hydroxy-methyl-carbamoyl)-propylcarbamoyl]-butyric acid anion], in assay [1], the inhibition constant (Ki) (commonly a dissociation constant, usually derived from enzyme kinetics or from competition with a known ligand) is 1.9 µM.

Consider `NC(CCC(=O)NC(CCC(=O)NO)C(=O)NCC(=O)O)C(=O)O` (stereo not drawn) [2-Amino-4-[1-(carboxymethyl-carbamoyl)-3-hydroxycarbamoyl-propylcarbamoyl]-butyric acid anion] (γGlu-Glu(NHOH)-Gly-OH; configuration not given here), for which the affinity in assay [1] corresponds to a Ki of 92.9 µM. Compared with the last compound, the Ki is about 49-fold higher.

Consider `CCOC(=O)CNC(=O)C(CCC(=O)NO)NC(=O)CCC(N)C(=O)O` (stereo not drawn) [2-Amino-4-[1-(ethoxycarbonylmethyl-carbamoyl)-3-hydroxycarbamoyl-propylcarbamoyl]-butyric acid anion] (γGlu-Glu(NHOH)-Gly-OEt; configuration not given here), for which inhibition in assay [2] was half-maximal at 1620 µM (IC50).
